Assay results from patent US12605350B2, “Composition for preventing, ameliorating, or treating disease caused by nitration of tyrosine in proteins comprising tyrosine as effective component” (INDUSTRY-ACADEMIC COOPERATION FOUNDATION GYEONGSANG …, priority 2020, dated 2026).

Legend:
nitrotyrosine protein = nitrotyrosine protein in liver tissues (Western blot), azoxymethane model; format: in vivo, mouse; details: L-tyrosine 100 mg/kg oral for 4 days, 16 hours after the administration of AOM
Method: (§1) C57BL/6 male mouse (13-week old, KOATECH, South Korea) was allowed to have free access to diets and water in sterile breeding room with constant temperature and humidity. The animals were divided into 3 test groups, i.e., (1) Control group (Control), (2) Carboxymethyl cellulose+azoxymethane treatment group (CMC+AOM), and (3) L-Tyrosine+AOM treatment group (L-Tyr+AOM). L-Tyrosine (100 mg/kg) was suspended in 0.5% CMC (carboxymethyl cellulose). The animal was orally administered, once a day for 4 days, with L-tyrosine or the prepared solvent CMC. Two hours after the oral administration on Day 4, intraperitoneal injection of AOM (100 mg/kg, […]) was carried out. To prevent dehydration, the animal was intraperitoneally injected with […] of physiological saline, 12 hours after the administration of AOM. Four hours after the injection, the test animal was sacrificed, blood was collected from the heart, and the liver tissues were harvested.
Liver tissues were homogenized with RIPA buffer solution. After centrifuge for 15 minutes at 16,000×g, 4° C., supernatant was collected and the protein quantification was carried out by BCA method. After SDS-PAGE electrophoresis, proteins were transferred to a PVDF membrane, and then blocked with 5% skim milk. […]

[1] = system: animal model of acute hepatic encephalopathy caused by AOM; assay: ALT in plasma, hepatic encephalopathy caused by azoxymethane; format: in vivo, mouse; details: L-tyrosine 100 mg/kg oral once a day for 4 days, AOM 100 mg/kg i.p.
Method: as §1, with “harvested. Blood collected in the above was centrifuged for 15 minutes at 3,000 rpm to separate plasma, and ALT (alanine aminotransferase) as an index of liver cell injury was measured by using ChemiLab GPT Assay Kit (IVD-LAB, Korea). According to the standard measurement method of the kit, absorbance was measured at a wavelength of 340 nm, and then expressed in unit of U/L.” for “harvested.”

[2] = system: glutamine synthetase (GS); assay: GS activity, GS expression and Tyr-nitrated GS in PFC of chronic immobilization stress mice; format: in vivo, mouse
Method: Each of the blood and PFC sample was obtained from a mouse anesthetized with CO2 gas. Specifically, mouse blood was collected between 9 AM and 11 AM and stored in a K3EDTA-coated vacuum container. Plasma was obtained by centrifuge for 10 minutes at 4° C., 500×g. PFC sample was weighed first, and, after lysis of the tissues by using Bullet homogenizer, subjected to centrifuge for 20 minutes at 4° C., 12,000 rpm. Thus-obtained plasma and tissue lysate were kept at −80° C. until use.
10 μg of the lysate were admixed with […] of GS assay buffer solution (50 mM imidazole-HCl, pH 6.8, 50 mM L-glutamine, 25 mM hydroxylamine, 25 mM sodium arsenate, 2 mM MnCl2 and 0.16 mM ADP), followed by incubation for 1 hour at 37° C.
After the mixing, the reaction was terminated by adding 50 μl of stop buffer solution (90 mM FeCl3, 1.8 N HCl and 1.45% trichloroacetic acid), and then γ-glutamylhydroxamate synthesized from a reaction between glutamine and hydroxylamine as catalyzed by GS was measured at 560 nm using a microplate reader.
By using Western blot (WB) and immunoprecipitation (IP)-WB, level of GS and level of Tyr-nitrated GS were measured, respectively. […]
The animal models were divided into two groups (i.e., normal group and stress group). […] Change in bodyweight and food intake amount were measured every other day. […]

[3] = system: mouse model of stroke using endothelin-1; assay: brain infarction (cresyl violet staining) in endothelin-1 stroke model; format: in vivo; details: endothelin-1 (2 μg) to cerebral motor cortex, tyrosine 900 mg/kg (feed weight)
Method: To de-ionized water, endothelin-1 was added (2 μg/μl), and, after vigorous vortexing, completely dissolved by ultrasonication at 4° C. for about 10 minutes.
The mouse was anesthetized by intraperitoneal injection of avertin as an anesthetic (0.5 ml/25 g of mouse bodyweight). Thereafter, endothelin-1 was injected (2 μg) to the cerebral motor cortex area (with bregma at the center, AP 1.5 mm, ML-1.5 mm, and DV 1.8 mm) by stereotaxic surgery. The injection was made at speed of 0.3 μl per minute. The needle was left for about 5 minutes after completing the injection so that endothelin-1 can be fully absorbed in animal tissues. After suturing the skin, the animal was allowed to recover in the original cage.
Perfusion with PBS and PFA was carried out, via animal heart and the brain was removed and post-fixed in PFA for 15 hours or longer. After washing 3 times for 10 minutes with PBS, brain tissue specimen with thickness of 40 μm was obtained using a vibratome. Then, four specimens collected from the area injected with endothelin-1 were fixed on a silane-coated glass slide. […] The stained specimen sample was observed under an optical microscope, and, with the stored image, the area showing brain infarction was calculated by using Image J analysis program.

Row | SMILES | nitrotyrosine protein in liver tissues (nitrotyrosine protein) | ALT in plasma [1] | GS activity in PFC ([2]; stress group, tyrosine diet (181.2 mg/kg) compared to normal diet) | amount of N-Tyr (nitrated tyrosine) in GS ([2]; tyrosine-diet group compared to stress group with normal diet, PFC) | infarct volume [3]
1 | N[C@@H](Cc1ccc(O)cc1)C(=O)O [L-tyrosine] | suppressed with statistical significance | suppressed with statistical significance |  |  | 
2 | N[C@@H](Cc1ccc(O)cc1)C(=O)O [tyrosine] |  |  | statistically significant increase in the GS activity | statistically significant decrease in the amount of N-Tyr | infarct volume is reduced
